In ChEMBL document CHEMBL1133201, “Synthesis and cytotoxic activity of acetogenin analogues” (Bioorg Med Chem Lett, 2000) one finds IC50 data, which are given here for 14 compounds.

The test system of the assay is L1210. As to the kind of experiment: In vitro inhibitory activity was tested against L1210 leukemia cells. As to conditions: Mus musculus. In kind it is functional, cell-based.

The structures appear in SMILES notation.

Regarding `CC(=O)CC1C[C@@H](CCCCCCCC#C[C@H](O)COCCOC[C@H](O)c2ccc3ccccc3c2)OC1=O` (some centres undefined), half-maximal inhibition (IC50) required 3 µM.

As to `CC(=O)CC1C[C@@H](CCCCCCCC#C[C@@H](O)COCCOC[C@@H](O)c2ccccc2)OC1=O` (some centres undefined), it took 19.8 µM to reach half-maximal inhibition (IC50).

As for `CCCCCCCCCC[C@@H](O)[C@@H]1CC[C@@H]([C@@H]2CC[C@@H]([C@H](O)CCCCCCCCCC(O)CC3=CC(C)OC3=O)O2)O1` (some centres undefined) [BULLATACIN], the IC50 (as a rule, the midpoint of a concentration-inhibition curve) was determined as 0.0004 µM.

Regarding `CC(=O)CC1C[C@@H](CCCCCCCC#C[C@H](O)COCCOC[C@H](O)c2ccccc2)OC1=O` (some centres undefined), the midpoint of inhibition, the IC50, lay at 21.6 µM.

For `CCCCCCCCCC[C@@H](O)COCCOC[C@@H](O)C#CCCCCCCC[C@@H]1CC(CC(C)=O)C(=O)O1` (some centres undefined), the IC50 came to 1 µM.

`CC(=O)CC1C[C@@H](CCCCCCCC#C[C@@H](O)COCCOC[C@@H](O)N2CCCCC2)OC1=O` (some centres undefined) displayed a half-maximal inhibitory concentration (IC50) of 28.7 µM.

Compound `CC(=O)CC1C[C@@H](CCCCCCCC#C[C@@H](O)COCCOC[C@@H](O)OC2CC[C@]3(C)C(=CC[C@@H]4[C@H]5CC[C@@H]([C@@H](C)CCCC(C)C)[C@]5(C)CC[C@H]43)C2)OC1=O` (some centres undefined) came in with an IC50 of 2.8 µM.

Compound `COc1ccc([C@H](O)COCCOC[C@H](O)C#CCCCCCCC[C@@H]2CC(CC(C)=O)C(=O)O2)cc1` (some centres undefined) returned an IC50 above 10 µM.

Compound `CCCCCCCCCC[C@H](O)COCCOC[C@H](O)C#CCCCCCCC[C@@H]1CC(CC(C)=O)C(=O)O1` (some centres undefined) returned a half-maximal inhibitory concentration (IC50) of 3.5 µM.

Compound `CCCCCCCCCCCC[C@@H](O)[C@H]1CC[C@H]([C@H](O)CCCC[C@H](O)CCCCC[C@@H](O)CC2=CC(C)OC2=O)O1` (some centres undefined) [ANNONACIN] displayed an IC50 of 0.042 µM.

Compound `CCCCN(CCCC)[C@@H](O)COCCOC[C@@H](O)C#CCCCCCCC[C@@H]1CC(CC(C)=O)C(=O)O1` (some centres undefined) yielded an IC50 of 2.5 µM.

`COc1ccc([C@@H](O)COCCOC[C@@H](O)C#CCCCCCCC[C@@H]2CC(CC(C)=O)C(=O)O2)cc1` (some centres undefined) displayed an IC50 of 32 µM.

`CC(=O)CC1C[C@@H](CCCCCCCC#C[C@@H](O)COCCOC[C@@H](O)c2ccc(C(F)(F)F)cc2)OC1=O` (some centres undefined): inhibition was half-maximal at 3.3 µM (IC50).

For the compound `CCCCCCCCCC[C@H](O)[C@H]1CC[C@H]([C@H]2CC[C@H]([C@H](O)CCCCCCCCCC[C@@H]3CC(CC(C)=O)C(=O)O3)O2)O1` (some centres undefined) [BULLATACINONE], the IC50 was determined as 0.016 µM.
